Data from paper PMC10096391, “Discovery of N,4-Di(1H-pyrazol-4-yl)pyrimidin-2-amine-Derived CDK2 Inhibitors as Potential Anticancer Agents: Design, Synthesis, and Evaluation” (Molecules, 2023).

Experiments:
U937 leukemia cells = assay: Cell viability assay (MTT/resazurin), U937; format: cell-based; details: Homo sapiens, U-937, read-out: Antiproliferative Activity, GI50
Description: (§1) Cancer cell lines derived from leukemia (MV4-11 and U937), breast (MCF7 (Rb-positive) and MDA-MB-231(Rb-negative)), and ovarian (A2780, OVCAR5, OAW28, OV90, Cov318, and Cov504) cancers, and glioblastoma (U87, T98G and U251) were acquired from the cell bank at Drug Discovery and Development, University of South Australia, and cultured according to the American Type Culture Collection (ATCC) recommendation in Roswell Park Memorial Institute (RPMI)-1640, Dulbecco’s Modified Eagle’s Medium (DMEM), or Minimum Essential Media (MEM), with 10% fetal bovine serum (Sigma-Aldrich, Castle Hill, NSW, Australia) within a humidified incubator at 37 °C in the presence of 5% CO2.
(§2) The MTT (Life Technologies, Mulgrave, VIC, Australia) and resazurin (Sigma-Aldrich) assays were used to determine the antiproliferative activities of the compounds initially at 1 µM against the cancer cell lines stated above.

[1] = tested on: OAW28 ovarian cancer cells; assay: Cell viability assay (MTT/resazurin), OAW28; format: cell-based; details: Homo sapiens, OAW-28, read-out: Antiproliferative Activity, GI50
Description: as §1, §2

[2] = tested on: OVCAR5 ovarian cancer cells; assay: Cell viability assay (MTT/resazurin), OVCAR5; format: cell-based; details: Homo sapiens, OVCAR-5, read-out: Antiproliferative Activity, GI50
Description: as §1, §2

[3] = tested on: A2780 ovarian cancer cells; assay: 72 h MTT antiproliferative assay, A2780; format: cell-based; details: Homo sapiens, A2780; 72 h MTT
Description: as §1, §2

A2780 cells [4] = assay: Cell cycle analysis by flow cytometry, A2780; format: cell-based; details: A2780, 2 µM, 48 h
Description: The effect of the compounds on cell cycle distribution was evaluated following a previously reported method. Briefly, six-well plates (Sigma-Aldrich, NSW, Australia) were seeded with about 1–2 × 10^5 cells/well in 2 mL growth medium, incubated at 37 °C and 5% CO2 overnight, and treated with various concentrations of the test compounds and incubated for 48 h. The wells were collected by trypsinization, transferred into fluorescence-activating cell sorting (FACS) tubes, washed with 1 × phosphate-buffered saline (1 × PBS) twice, fixed in 70% (v/v) ice-cold ethanol for 15 min, and centrifuged at 300× g for 5 min. The cell pellets were then collected, stained with 200 µL of the cell cycle solution (comprising 50.0 μg/mL PI, 0.1 mg/mL RNase A, and 0.05% Triton X-100), and incubated for 1.5 h at room temperature in the dark. Finally, the DNA content was determined by a flow cytometer (CytoFLEX) and analyzed by CytExpert 2.1 software (Beckman Coulter, Brea, CA, USA).

MV4-11 leukemia cells = assay: Cell viability assay (MTT/resazurin), MV4-11; format: cell-based; details: Homo sapiens, read-out: Antiproliferative Activity, GI50
Description: as §1, §2

CDK1/cyclin B (CDK1B) = CDK1/cyclin B (CDK1B) (Homo sapiens, UniProt P06493); assay: ADP-Glo kinase assay, CDK1/cyclin B; format: biochemical; details: apparent Ki from IC50, ADP-Glo
Sequence of CDK1/cyclin B (CDK1B) (P06493 whole entry): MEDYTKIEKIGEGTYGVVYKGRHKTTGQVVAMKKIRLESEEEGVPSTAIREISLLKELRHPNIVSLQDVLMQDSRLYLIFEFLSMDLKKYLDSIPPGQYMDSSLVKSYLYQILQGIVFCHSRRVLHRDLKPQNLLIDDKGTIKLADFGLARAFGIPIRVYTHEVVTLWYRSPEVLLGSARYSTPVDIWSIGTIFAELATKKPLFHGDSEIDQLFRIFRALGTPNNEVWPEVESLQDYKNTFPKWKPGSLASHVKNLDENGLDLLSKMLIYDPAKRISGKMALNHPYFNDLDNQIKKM
Sequence of CDK1/cyclin B (CDK1B) (P14635 whole entry partner): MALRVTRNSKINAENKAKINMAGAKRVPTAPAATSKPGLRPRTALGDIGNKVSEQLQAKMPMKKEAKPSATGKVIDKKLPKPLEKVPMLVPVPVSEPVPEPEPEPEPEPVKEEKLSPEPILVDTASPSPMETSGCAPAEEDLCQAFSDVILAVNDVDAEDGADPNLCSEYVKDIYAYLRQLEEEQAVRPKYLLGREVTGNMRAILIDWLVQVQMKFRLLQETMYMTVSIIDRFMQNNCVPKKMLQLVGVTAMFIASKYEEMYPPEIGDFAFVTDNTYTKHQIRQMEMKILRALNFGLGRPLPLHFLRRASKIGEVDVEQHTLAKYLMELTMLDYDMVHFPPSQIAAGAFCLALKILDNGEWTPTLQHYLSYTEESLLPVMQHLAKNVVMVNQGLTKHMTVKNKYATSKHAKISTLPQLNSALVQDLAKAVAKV
Description: (§3) The luminescent ADP-Glo™ assay, which measures the amount of ADP formed in a kinase reaction as described previously, was used to determine the kinase inhibition profile of the compounds. […] Ki values were calculated from their corresponding IC50 values (the concentrations of inhibitors that inhibit the kinase activity by 50%) and the Michaelis–Menten constant (Km) of ATP for each kinase using the Cheng–Prusoff equation as previously stated. In brief, 1 μL of each concentration of the test compounds was added to the respective wells, and to it were added 1 μL of the kinases and their respective substrates, diluted to the desired concentration in kinase reaction buffer ([…] tris base pH 7.5, 20 mM MgCl2, 0.4 µM dithiothreitol, and 0.1 mg/mL bovine serum albumin), and the pH was adjusted by adding 1 μL of a two-fold diluted kinase reaction buffer. To initiate the kinase activity, 1 μL of ATP solution (the concentration varies depending on the type of kinase under investigation) was added to each well, and the mixture was incubated at room temperature (20 to 22 °C) for 30–60 min depending on the kinase being tested. The reaction was then halted, 5 μL of the ADP-Glo reagent was added to each well (removing any unreacted ATP), and it was incubated at room temperature for 40 min. Then, to each well, 10 μL of the kinase detection reagent containing luciferin was added, which was incubated once more at room temperature in the dark for 30 min and the luminescence was measured by an EnVision® multi-label plate reader with an integration time of 1.5 s per well. Positive controls (the wells without the inhibitor) and negative or blank controls (the wells without the inhibitor and the enzyme, but with 1 × kinase reaction buffer) were also determined in 2.5% DMSO.
(§4) The percentage of kinase inhibition was determined using the following equation: % Residual kinase activity=Luminescence in the presence of inhibitor−Luminescence of blank control/Luminescence in the absence of inhibitor−Luminescence of blank control×100%%kinase inhbition=100%−%Residual kinase activity
(§5) Km is defined as the concentration of ATP or the substrate required to produce 50% of the maximal reaction rate in the kinase reaction. Therefore, since we used the concentration of ATP and the substrate at their Km values, Ki simply equals IC50/2 assuming these inhibitors are ATP-competitive based on the Cheng–Prusoff equation: Ki = IC50/(1 + ([ATP]/Km(ATP))) where [ATP] is the ATP concentration used for the IC50 determination and Km(ATP) for each kinase was determined experimentally.

T98G glioblastoma cells = assay: Cell viability assay (MTT/resazurin), T98G; format: cell-based; details: Homo sapiens, read-out: Antiproliferative Activity, GI50
Description: as §1, §2

[5] = tested on: OV90 ovarian cancer cells; assay: Cell viability assay (MTT/resazurin), OV90; format: cell-based; details: Homo sapiens, OV-90, read-out: Antiproliferative Activity, GI50
Description: as §1, §2

OVCAR5 cells = assay: Colony formation (crystal violet), OVCAR5; format: cell-based; details: OVCAR5, 10 days; 15 at 0.5 and 2 µM, CYC065 at 0.5 µM
Description: (§6) Briefly, ovarian cancer cells (i.e., A2780, OVCAR5, and OV90) seeded in six-well plates were adhered for 6 h and treated with 15. The medium that contained the compound was then changed every 72 h. Ten days after treatment, the cells were washed with PBS, fixed, and stained with crystal violet staining solution (0.05% crystal violet, 1% formaldehyde, 1% PBS, and 1% ethanol), and colonies were quantified using ImageJ software (National Institute of Health, Maryland, USA), with data presented as percentages of the control cells.

CDK2/cyclin E (CDK2E) = CDK2/cyclin E (CDK2E) (Homo sapiens, UniProt P24941); assay: ADP-Glo kinase assay, CDK2/cyclin E; format: biochemical; details: apparent Ki from IC50, ADP-Glo
Description: as §3, §4, §5

[6] = tested on: Cov504 ovarian cancer cells; assay: Cell viability assay (MTT/resazurin), Cov504; format: cell-based; details: read-out: Antiproliferative Activity, GI50
Description: as §1, §2

U251 glioblastoma cells = assay: Cell viability assay (MTT/resazurin), U251; format: cell-based; details: Homo sapiens, U-251, read-out: Antiproliferative Activity, GI50
Description: as §1, §2

A2780 cells [7] = assay: Colony formation (crystal violet), A2780; format: cell-based; details: A2780, 10 days; 15 at 0.5 and 2 µM, CYC065 at 0.5 µM
Description: as §6

For Cn1cc(-c2nc(Nc3cn[nH]c3)ncc2Cl)cn1 [Compound 15, 5-Chloro-4-(1-methyl-1H-pyrazol-4-yl)-N-(1H-pyrazol-4-yl)pyrimidin-2-amine], the GI50 (U937 leukemia cells) was 0.186 µM, the GI50 [1] was 0.534 µM and the GI50 [2] was 0.15 µM. The GI50 [3] was 0.158 µM, the S-phase cells (A2780 cells [4]) was 26% and the GI50 (MV4-11 leukemia cells) was 0.127 µM. It also gave a Ki (CDK1/cyclin B (CDK1B)) of 0.025 µM, a GI50 (T98G glioblastoma cells) of 0.38 µM and a GI50 [5] of 0.39 µM. For the same compound, the “effect on colony formation” value (OVCAR5 cells) was “inhibited”, the Ki (CDK2/cyclin E (CDK2E)) was 0.005 µM and the GI50 [6] was 0.54 µM. The GI50 (U251 glioblastoma cells) was 0.35 µM and the “effect on colony formation” value (A2780 cells [7]) was “inhibited”.
